Values quoted from earlier work, collected in patent US20230111756A1, “STABLE FORMULATIONS OF PLANTS EXTRACTS AND METHODS OF MAKING THE SAME” (Nulixir Inc., priority 2021, published 2023).

Conditions: reference solvents n-octanol and water; categorization at pH=7 unless stated otherwise

Row | Compound | log P
1 | COc1cc(/C=C\c2ccc(OC)c(O)c2)oc(=O)c1 [11-hydroxyyangonin] | ~2.2
2 | CC1=C(CO)C(=O)O[C@@H]([C@@H](C)[C@H]2CC[C@H]3[C@@H]4C[C@H](Cl)[C@]5(O)[C@@H](O)C=CC(=O)[C@]5(C)[C@H]4CC[C@]23C)C1 [6a-chloro-5b-hydroxywithaferin A] | ~3.2
3 | N#C[C@@]1(O[C@@H]2O[C@H](CO)[C@@H](O)[C@H](O)[C@H]2O)C=C[C@@H](O)C1 [tetraphyllin B] | ~−2.5
4 | COc1cc2c(c(OC)c1OC)-c1c(cc3c(c1OC)OCO3)CC(C)C(C)C2 (single isomer, unassigned; (-)) [(−)-schisandrin B] | ~4
5 | (R)-kawain | ~2.7
6 | COc1cc2c(c(OC)c1OC)-c1c(cc(OC)c(OC)c1OC)C[C@H](C)[C@H](C)C2 [(−)-schisandrin A] | ~3.6
7 | COc1cc2c(c(OC)c1OC)-c1c(cc(OC)c(OC)c1OC)C[C@](C)(O)[C@@H](C)C2 [schisandrol A] | ~3.4
8 | COc1cc2c(c(OC)c1OC)-c1c(cc(OC)c(OC)c1OC)C[C@](C)(O)[C@@H](C)C2 [(+)-schisandrin] | ~5
9 | COc1nc2c(c(=O)n1C)n(C)c(=O)n2C [methylliberine] | ~−0.083
10 | COc1cc([C@H]2Oc3cc(O)c4c(=O)c(O)c(-c5ccc(O)cc5)oc4c3O[C@@H]2CO)ccc1O [rhodiolin] | ~2
11 | COC1=CC(=O)O[C@@H](CCc2ccc3c(c2)OCO3)C1 [7,8-dihydromethysticin] | ~2.2
12 | COc1ccc(CCc2cc(OC)cc(=O)o2)cc1 [7,8-dihydroyangonin] | ~2.9
13 | herinacine A | ~2.5
14 | CC(=O)OC1C=CC(=O)N(C(=O)CCc2ccccc2)C1 (stereo not shown) [pipermethystine] | ~1.8
15 | hericerin | ~6.4
16 | COC1=CC(=O)OC(/C=C/c2ccc(OC)cc2)C1 (stereo not shown) [5,6-dihydroyangonin] | ~2.5
17 | COc1ccc([C@@]23CCC(=O)C[C@@H]2N(C)CC3)cc1OC [mesembrine] | 1.5
18 | COc1cc(/C=C/c2ccccc2)oc(=O)c1 [5,6-dehydrokawain] | ~2.9
19 | schisandroside C | ~1.6
20 | bacopaside B | ~2.8
21 | COc1c2c(cc3c1-c1c(cc4c(c1OC)OCO4)C[C@H](C)[C@H](C)C3)OCO2 [(−)-schisandrin C] | ~3.5
22 | tortuosomine | 3
